Results from article PMC13242511, “Disrupting Notch signalling by a small molecule inhibiting dihydroorotate dehydrogenase activity” (Scientific Reports, 2026).
Where “and” joins values, the source holds several entries; their conditions need not be identical. Equal entries are not always repeated. Entries after “also recorded” stand apart in the source; their conditions may differ. Where two headings read alike, the source gives them in different places.

What was measured:
Assay type in all cases: cell-based
NOTCH1 = test: Western blot analysis of S3-cleaved NOTCH1 (a-N1-V1744); conditions: Western blot quantification, Supplemental Figure 4K; for V1744, DMSO as reference: DMSO = 1
Description: Cells were washed in ice-cold PBS and incubated for 30 min on ice with RIPA cell lysis buffer (Thermofisher, cat #89900) containing protease and phosphatase inhibitors (Thermofisher, cat #78442), scraped off and homogenized using a 25G syringe, and subsequently centrifugated for 10 min at > 13,000xg. […] After electrophoresis, gels were placed directly onto a TransBlot Turbo PVDF or nitrocellulose membrane (Bio-rad, cat #1704157 and cat #1704159) and transferred using the “HIGH MW” protocol (Bio-Rad). Subsequently, membranes were blocked for 1 h at room temperature using Clear Milk Blocking Buffer (ThermoFisher, cat #37587) supplemented with 0.1% Tween20 (Sigma-Aldrich, cat #P1379). Detection of antibody binding was performed by using Clarity Western ECL-Substrate (Bio-rad, cat #1705060S). Beta-Actin protein signals were used as a loading control. Western blot membranes were in some experiments stripped after development (indicated in the figure in each respective case) by washing the membranes twice for 10 min in PBS, followed by incubation in membranes in western blot stripping buffer (ThermoFisher, cat #21059) for 30 min at room temperature and gentle agitation. Stripped membranes were washed twice with PBS and incubated for 30 min in blocking buffer before incubation with primary antibody. A list of all antibodies used in this study is provided in Supplemental Table 6. Uncropped western blot images are provided in […]. Protein expression levels of western blot bands were quantified using Fiji (V.2.16) with beta-Actin signals for normalisation (Supplemental Table 8). Uncropped western blot images are provided in Supplemental Fig. 10.

Notch signalling = test: Notch reporter assay (12xCSL firefly luciferase / renilla luciferase, HEK293T Notch1ΔE reporter cell line clone #A1-11); set-up: AUC Notch: scale not given here; conditions: for activity: 1,25µM; for AUC Notch: area under the 14-point dose-response curve; for concentrations associated with cytotoxicity (high dose-points removed): extended dose range, Supplemental Fig. 7B; for AUC 9p Notch reporter assay / AUC 14p Notch reporter assay: AUCs averaged when replicates available; for Notch assay: overview in comparison to compound C, Supplemental Fig. 9; for Bottom (Emax): Emax indicated independent from assay constraints, in % (unit assumed)
How it was run: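 Compounds at two-fold concentration in 10 µl medium were brought to one-fold by adding 10 µl holding 4000 Notch reporter cells (clone #A1-11) per well of a 384-well plate. After 24 h, Promega dual-GLO firefly and renilla luciferase were read on a SpectraMaxi3. Dose-response curves were fitted with a log(inhibitor) vs. response variable-slope model.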

[1] = test system: T-ALL and breast cancer cell lines; test: Growth inhibition in tumour cell lines (panel, cell lines not named singly); set-up: key to tumor cell growth: + indicates that the compound had an effect; -: − indicates that there was no significant effect in the respective assay; conditions: for IC50: six days, read-out: IC50, metabolic activity; for tumor cell growth: summary Fig. 8E; for viability assay: overview in comparison to compound C, Supplemental Fig. 9
From the text: We next investigated whether compounds A-E affected growth and viability of cell lines from T-cell acute lymphoblastic leukaemia (T-ALL) and breast cancer, two tumour types in which elevated Notch signalling has been implicated in tumorigenesis. […] When testing analogues of compounds B and C, five of the seven B analogues and one of the two C analogues produced dose–response curves and IC50s, which however were higher compared to the original hits (Supplemental Fig. 5A; IC50s are presented in Supplemental Table 6).
Compounds were spotted on white 384-well tissue culture plates (Greiner, cat #781080) using an Echo 525 Acoustic liquid handler (Labcyte). Cells were grown to 80% confluence, detached if required, counted and 20 µl containing 2000–4000 cells per well was then seeded in each well and cultivated for three (4,000 cells seeded) and six days (2,000 cells seeded). […] Luciferase activity (reading out metabolic activity) was determined using the CellTiter-Glo 2.0 kit (CTG, Promega, cat #G9242) following the manufacturer’s instructions and luminescence was measured on a SpectraMaxi3 or Varioscan plate reader (Molecular Devices, Thermofisher).

[2] = Homo sapiens, HEK-293T, 14-point dose-response, Fig. 4, read-out: approximated IC50, Notch reporter assay
[3] = Homo sapiens, HEK-293T, 14-point, unit inferred, replicates averaged, read-out: approxiated IC50s 14p Notch reporter assay
[4] = Homo sapiens, HEK-293T, 14p Notch assay DR, bottom constrained to Emax of positive control DAPT, read-out: approximated IC50
[5] = Homo sapiens, HEK-293T, 14p Notch assay DR, bottom constrained to Emax of positive control RO4929097, read-out: approximated IC50
[6] = Homo sapiens, HEK-293T, 14p Notch assay DR, log10 value, bottom constrained to Emax of positive control DAPT, read-out: approximated LogIC50 (converted)
[7] = Homo sapiens, HEK-293T, 14p Notch assay DR, log10 value, bottom constrained to Emax of positive control RO4929097, read-out: approximated LogIC50 (converted)
[8] = Homo sapiens, HEK-293T, 10 µM, primary screen, 24 h, unit from Fig. 2 legend, read-out: Primary screen at 10 µM (Notch reporter signal)
[9] = Homo sapiens, HEK-293T, 10 µM, three-dose confirmation screen, unit from Fig. 2 legend, read-out: Hit confirmation at 10 µM (Notch reporter signal)
[10] = Homo sapiens, HEK-293T, 10µM, 3-point DR confirmation screen, Notch reporter assay, read-out: inhibitor ratio in % of DMSO in 3 point DR
[11] = Homo sapiens, HEK-293T, 10 µM, sheet conf vs counter 10 µM, same values as 3-point DR confirmation screen, read-out: Confirmation screen
[12] = Homo sapiens, HEK-293T, 25µM, 3-point DR confirmation screen, Notch reporter assay, read-out: inhibitor ratio in % of DMSO in 3 point DR
[13] = Homo sapiens, HEK-293T, 25 µM, Notch reporter 3-point dose-confirmation assay, sheet "conf vs counter 25 µM", read-out: Confirmation screen
[14] = Homo sapiens, HEK-293T, 3-point DR confirmation screen, Notch reporter assay, read-out: inhibitor ratio in % of DMSO in 3 point DR
[15] = 14p dose response, single replicates, read-out: approximated IC50s 14p Notch reporter assay
[16] = Homo sapiens, HEK-293T, 9p dose response, averaged over replicates, read-out: 9p Notch reporter assay averaged IC50s
[17] = Homo sapiens, HEK-293T, 9p dose response, log10 of averaged IC50, read-out: 9p Notch reporter assay averaged IC50s (log) (converted)
[18] = Homo sapiens, HEK-293T, 14p Notch assay DR, log10 value, Notch inhibitor controls, no bottom constraint named, read-out: approximated LogIC50 (converted)
[19] = Homo sapiens, HEK-293T, 14p dose response, single replicates, read-out: approximated IC50s 14p Notch reporter assay
[20] = Homo sapiens, HEK-293T, 14p dose response, log10 of averaged IC50, read-out: 14p Notch reporter assay averaged IC50s (log) (converted)

Row | SMILES | IC50 (Notch signalling; [2]) | IC50 (Notch signalling; [3]) | IC50 (Notch signalling; [4]) | IC50 (Notch signalling; [5]) | IC50 (Notch signalling; [6]) | IC50 (Notch signalling; [7]) | IC50 ([1]; all cell lines (breast cancer)) | V1744 (activated N1) band intensity (NOTCH1) | V1744 normalised to beta-actin signals (NOTCH1) | V1744, DMSO as reference (NOTCH1) | activity at 10 µM (Notch signalling; [8]) | activity at 10 µM (Notch signalling; [9]) | activity at 10 µM (Notch signalling; [10]) | activity at 10 µM (Notch signalling; [11]) | activity at 25 µM (Notch signalling; [12]) | activity at 25 µM (Notch signalling; [13]) | activity (Notch signalling; [14]) | AUC Notch (Notch signalling; replicates averaged) | concentrations associated with cytotoxicity (high dose-points removed) (Notch signalling) | tumor cell growth [1] | other results
1 | NC(=O)c1c(NC(=O)NCc2cccnc2)sc2c1CCC2 [compound D] | 1000 nM | 780 nM | 1300 nM | 230 nM | 1580 nM | 251 nM | > 10000 nM | 30696.5 | 1.2 | 0.9101 | 44.7% | 47% | 47% | 47% | 55.6% | 55.6% | 91% | 273.0 | higher than 12.5 µM | - | Hill slope, Notch reporter assay (Notch signalling; 14-point dose-response): -1.7
2 | CCc1c(C(=O)N(C)Cc2cnn(C(C)C)c2)[nH]c2ccccc12 [compound A] | 3300 nM | 3400 nM | 4200 nM | 2500 nM | 3980 nM | 2510 nM | > 10000 nM | 20296.9 | 1.0 | 0.806 | 25.3% | 27.7% | 27.7% | 27.7% | 19% | 19% | 65.8% | 535.0 |  | - | IC50 (Notch signalling; Homo sapiens, HEK-293T, 14-point dose-response, read-out: approximated IC50, Notch reporter assay): 4000 nM
3 | Cc1ccc2[nH]c3c(c2c1)CCOC31CCN(Cc2ccccc2-c2ccccc2)CC1 [compound B] | 900 nM | 910 nM | 1200 nM | 590 nM | 1260 nM | 631 nM |  | 10802.4 | 0.6 | 0.4585 | 60.8% | 65% |  | 65% |  | 69.3% | 79.7% | 573.0 | higher than 5 µM | + | 
4 | Cc1nn(-c2nc3ccccc3s2)c(O)c1C1OC(=O)c2ccccc21 (stereo not drawn) [compound E] | 730 nM |  |  |  | 794 nM |  | > 10000 nM | 44303.5 | 1.9 | 1.451 | 45% | 38% | 38% | 38% | 35.2% | 35.2% | 37.1% | 577.0 |  | - | IC50 (Notch signalling; 14-point dose-response, Fig. 4, read-out: approximated IC50, Notch reporter assay): 700 nM; Bottom (Emax) (Notch signalling; 14p Notch assay DR): 54.2
5 | COc1cccc(CNc2ccc(N3CCCCC3)cc2)c1OCc1cccs1 [compound C] |  | 1200 nM |  |  | 1260 nM |  |  | 14466.8 | 0.8 | 0.5945 | 50.1% | 66.2% | 66.2% | 66.2% | 65.1% | 65.1% | 61.8% | 584.0 | higher than 12.5 µM | + | Hill slope, Notch reporter assay (Notch signalling; 14-point dose-response): -16.2; Bottom (Emax) (Notch signalling; 14p Notch assay DR): 45.4; IC50 (Notch signalling; Homo sapiens, HEK-293T, dose range 50 µM-2.5 nM, Fig. 7E, read-out: IC50, Notch reporter activity): 150 nM; Notch assay (Notch signalling): nanomolar potency; IC50 ([1]; Homo sapiens, the other breast cancer cell lines (other than MDA-MB-468)): > 10000 nM; viability assay [1]: context specific

More lines, main results first:

Row | IC50 (Notch signalling; [2]) | IC50 (Notch signalling; [3]) | IC50 (Notch signalling; [4]) | IC50 (Notch signalling; [5]) | IC50 (Notch signalling; [6]) | IC50 (Notch signalling; [7]) | IC50 ([1]; all cell lines (breast cancer)) | SMILES | V1744 (activated N1) band intensity (NOTCH1) | V1744 normalised to beta-actin signals (NOTCH1) | V1744, DMSO as reference (NOTCH1) | activity at 10 µM (Notch signalling; [8]) | activity at 10 µM (Notch signalling; [9]) | activity at 10 µM (Notch signalling; [10]) | activity at 10 µM (Notch signalling; [11]) | activity at 25 µM (Notch signalling; [12]) | activity at 25 µM (Notch signalling; [13]) | activity (Notch signalling; [14]) | AUC Notch (Notch signalling; replicates averaged) | concentrations associated with cytotoxicity (high dose-points removed) (Notch signalling) | tumor cell growth [1] | other results
6 |  | 5500 nM |  |  |  |  |  | CC(C)(C)c1ccc(Oc2ccc(N)cn2)cc1 [CB-103, reference compound] | 20841.8 | 0.8 | 0.6093 |  |  |  |  |  |  |  | 546.0 |  |  | AUC 9p Notch reporter assay (Notch signalling; 9p dose response): 3.40E+02; IC50 (Notch signalling; [15]): 5800 nM; AUC 14p Notch reporter assay (Notch signalling; 14p dose response): 5.46E+02; IC50 (Notch signalling; [16]): 15000 nM; IC50 (Notch signalling; [17]): 15800 nM; IC50 (Notch signalling; [18]): 6310 nM; IC50 (Notch signalling; [19]): 5100 nM; IC50 (Notch signalling; [20]): 5010 nM; Notch assay (Notch signalling): lower potency; also recorded: lower activity than compound C; viability assay [1]: context specific
7 |  | 53 nM |  |  |  |  |  | CC(C)(C(=O)NCC(F)(F)C(F)(F)F)C(=O)N[C@@H]1C(=O)Nc2ccccc2-c2ccccc21 [RO4929097, reference compound] | 4624.07 | 0.211 | 0.1638 |  |  |  |  |  |  |  | 430.0 |  |  | IC50 (Notch signalling; 9p dose response, single replicates, read-out: approximated IC50s 9p Notch reporter assay): 31 nM and 13 nM; AUC 9p Notch reporter assay (Notch signalling; 9p dose response): 2.36E+02; IC50 (Notch signalling; [15]): 45 nM; AUC 14p Notch reporter assay (Notch signalling; 14p dose response): 4.30E+02; IC50 (Notch signalling; [16]): 22 nM; IC50 (Notch signalling; [17]): 20 nM; IC50 (Notch signalling; Homo sapiens, HEK-293T, 14p Notch assay DR, Notch inhibitor controls, no bottom constraint named, read-out: approximated IC50): 21.7 nM; IC50 (Notch signalling; Homo sapiens, HEK-293T, 14p Notch assay DR, averaged when replicate measurements were available, read-out: averaged IC50s): 42 nM; IC50 (Notch signalling; [18]): 63.1 nM; IC50 (Notch signalling; [19]): 60 nM; IC50 (Notch signalling; [20]): 50.1 nM; Notch assay (Notch signalling): higher potency; viability assay [1]: context specific
